Key:
Assay in all cases: radiometric filter-binding kinase assay
[1] = biological target: IKBKE (human) (UniProt Q14164)
[2] = biological target: MAPK11 (human) (UniProt Q15759)
[3] = biological target: MAPKAPK5 (human) (UniProt Q8IW41)
[4] = biological target: BTK (human) (UniProt Q06187)
[5] = biological target: PAK7 (human) (UniProt Q9P286)
[6] = biological target: HIPK1 (human) (UniProt Q86Z02)
[7] = biological target: DAPK1 (human) (UniProt P53355)
[8] = biological target: CSNK2A1 (human) (UniProt P68400)
[9] = biological target: PAK6 (human) (UniProt Q9NQU5)
[10] = biological target: PRKCZ (human) (UniProt Q05513)
[11] = test system: ROCK2 (rat); details: accession and sequence are those of the human protein
[12] = biological target: MAPK14 (human) (UniProt Q16539)
[13] = biological target: MARK1 (human) (UniProt Q9P0L2)
[14] = biological target: EPHB3 (human) (UniProt P54753)
[15] = biological target: NUAK1 (human) (UniProt O60285)
Chain of NUAK1 (human) (O60285 whole entry, looked up): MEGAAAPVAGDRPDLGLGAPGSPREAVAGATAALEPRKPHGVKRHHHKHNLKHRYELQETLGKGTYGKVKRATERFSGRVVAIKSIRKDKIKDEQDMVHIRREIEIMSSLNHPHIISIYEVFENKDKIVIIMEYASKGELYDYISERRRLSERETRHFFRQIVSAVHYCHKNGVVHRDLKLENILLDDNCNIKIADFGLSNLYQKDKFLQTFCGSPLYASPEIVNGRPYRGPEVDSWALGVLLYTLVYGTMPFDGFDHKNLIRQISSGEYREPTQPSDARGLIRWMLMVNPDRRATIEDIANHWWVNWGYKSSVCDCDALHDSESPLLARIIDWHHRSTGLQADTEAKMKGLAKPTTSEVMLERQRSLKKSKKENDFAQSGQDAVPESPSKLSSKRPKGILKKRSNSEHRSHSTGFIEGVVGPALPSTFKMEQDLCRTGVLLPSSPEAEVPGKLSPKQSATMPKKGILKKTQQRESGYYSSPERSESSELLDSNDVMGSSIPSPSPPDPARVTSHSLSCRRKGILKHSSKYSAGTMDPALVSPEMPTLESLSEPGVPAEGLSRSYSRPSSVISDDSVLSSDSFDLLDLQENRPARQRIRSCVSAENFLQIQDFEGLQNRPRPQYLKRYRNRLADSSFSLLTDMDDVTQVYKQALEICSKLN

[16] = biological target: NEK6 (human) (UniProt Q9HC98)
Chain of NEK6 (human) (Q9HC98 whole entry, looked up): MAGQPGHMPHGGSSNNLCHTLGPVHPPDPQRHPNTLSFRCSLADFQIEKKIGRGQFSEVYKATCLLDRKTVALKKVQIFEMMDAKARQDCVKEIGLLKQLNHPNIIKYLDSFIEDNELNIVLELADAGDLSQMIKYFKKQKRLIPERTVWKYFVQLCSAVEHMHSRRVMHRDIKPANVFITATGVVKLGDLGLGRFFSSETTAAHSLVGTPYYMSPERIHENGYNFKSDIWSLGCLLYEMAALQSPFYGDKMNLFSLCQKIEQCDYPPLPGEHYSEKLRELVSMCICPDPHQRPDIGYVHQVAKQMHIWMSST

[17] = biological target: DYRK1A (human) (UniProt Q13627)
[18] = biological target: EPHA2 (human) (UniProt P29317)
[19] = biological target: DYRK3 (human) (UniProt O43781)
[20] = biological target: MARK3 (human) (UniProt P27448)
[21] = biological target: MAP2K6 (human) (UniProt P52564)
[22] = biological target: RPS6KA5 KD1 KD2 (human) (UniProt O75582)
[23] = biological target: MST4 (human) (UniProt Q9P289)
[24] = biological target: ERBB4 (human) (UniProt Q15303)
[25] = biological target: PAK4 (human) (UniProt O96013)
[26] = biological target: MAPK13 (human) (UniProt O15264)
[27] = test system: AKT1 (human), P31749 [S473D]
[28] = biological target: TAOK1 (human) (UniProt Q7L7X3)
Chain of TAOK1 (human) (Q7L7X3 whole entry, looked up): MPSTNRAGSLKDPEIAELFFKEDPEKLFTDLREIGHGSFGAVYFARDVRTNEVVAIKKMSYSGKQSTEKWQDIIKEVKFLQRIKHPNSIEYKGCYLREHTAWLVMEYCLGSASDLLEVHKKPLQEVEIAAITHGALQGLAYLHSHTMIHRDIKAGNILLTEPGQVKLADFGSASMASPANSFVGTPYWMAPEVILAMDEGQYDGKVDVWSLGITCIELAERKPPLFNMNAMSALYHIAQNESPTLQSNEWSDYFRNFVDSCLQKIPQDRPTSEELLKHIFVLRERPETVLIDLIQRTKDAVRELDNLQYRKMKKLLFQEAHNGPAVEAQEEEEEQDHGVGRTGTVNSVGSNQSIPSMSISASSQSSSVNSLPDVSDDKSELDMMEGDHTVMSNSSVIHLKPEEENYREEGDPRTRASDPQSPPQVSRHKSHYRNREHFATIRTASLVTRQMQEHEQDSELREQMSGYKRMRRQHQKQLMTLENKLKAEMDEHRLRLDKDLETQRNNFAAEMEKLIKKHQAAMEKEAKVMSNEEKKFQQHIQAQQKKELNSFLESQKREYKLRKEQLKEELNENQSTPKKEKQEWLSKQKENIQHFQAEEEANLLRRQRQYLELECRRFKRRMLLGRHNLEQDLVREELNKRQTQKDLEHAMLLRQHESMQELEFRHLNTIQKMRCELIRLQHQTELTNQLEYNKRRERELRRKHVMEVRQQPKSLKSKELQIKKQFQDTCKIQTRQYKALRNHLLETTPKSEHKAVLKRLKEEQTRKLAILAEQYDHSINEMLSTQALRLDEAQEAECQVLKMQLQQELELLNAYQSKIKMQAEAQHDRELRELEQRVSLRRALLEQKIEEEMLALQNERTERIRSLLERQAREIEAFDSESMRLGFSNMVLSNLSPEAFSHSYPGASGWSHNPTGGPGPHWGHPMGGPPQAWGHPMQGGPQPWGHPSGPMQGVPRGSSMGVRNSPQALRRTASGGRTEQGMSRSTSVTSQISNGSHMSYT

[29] = biological target: HIPK2 (human) (UniProt Q9H2X6)
[30] = biological target: MAP3K9 (human) (UniProt P80192)
[31] = biological target: EPHB1 (human) (UniProt P54762)
[32] = biological target: DYRK2 (human) (UniProt Q92630)
[33] = biological target: EEF2K (human) (UniProt O00418)
[34] = biological target: HIPK3 (human) (UniProt Q9H422)
[35] = biological target: CaMK1 (human) (UniProt Q14012)
[36] = test system: LCK (mouse); details: accession and sequence are those of the human protein

Chain of DAPK1 (human) (P53355 whole entry, looked up): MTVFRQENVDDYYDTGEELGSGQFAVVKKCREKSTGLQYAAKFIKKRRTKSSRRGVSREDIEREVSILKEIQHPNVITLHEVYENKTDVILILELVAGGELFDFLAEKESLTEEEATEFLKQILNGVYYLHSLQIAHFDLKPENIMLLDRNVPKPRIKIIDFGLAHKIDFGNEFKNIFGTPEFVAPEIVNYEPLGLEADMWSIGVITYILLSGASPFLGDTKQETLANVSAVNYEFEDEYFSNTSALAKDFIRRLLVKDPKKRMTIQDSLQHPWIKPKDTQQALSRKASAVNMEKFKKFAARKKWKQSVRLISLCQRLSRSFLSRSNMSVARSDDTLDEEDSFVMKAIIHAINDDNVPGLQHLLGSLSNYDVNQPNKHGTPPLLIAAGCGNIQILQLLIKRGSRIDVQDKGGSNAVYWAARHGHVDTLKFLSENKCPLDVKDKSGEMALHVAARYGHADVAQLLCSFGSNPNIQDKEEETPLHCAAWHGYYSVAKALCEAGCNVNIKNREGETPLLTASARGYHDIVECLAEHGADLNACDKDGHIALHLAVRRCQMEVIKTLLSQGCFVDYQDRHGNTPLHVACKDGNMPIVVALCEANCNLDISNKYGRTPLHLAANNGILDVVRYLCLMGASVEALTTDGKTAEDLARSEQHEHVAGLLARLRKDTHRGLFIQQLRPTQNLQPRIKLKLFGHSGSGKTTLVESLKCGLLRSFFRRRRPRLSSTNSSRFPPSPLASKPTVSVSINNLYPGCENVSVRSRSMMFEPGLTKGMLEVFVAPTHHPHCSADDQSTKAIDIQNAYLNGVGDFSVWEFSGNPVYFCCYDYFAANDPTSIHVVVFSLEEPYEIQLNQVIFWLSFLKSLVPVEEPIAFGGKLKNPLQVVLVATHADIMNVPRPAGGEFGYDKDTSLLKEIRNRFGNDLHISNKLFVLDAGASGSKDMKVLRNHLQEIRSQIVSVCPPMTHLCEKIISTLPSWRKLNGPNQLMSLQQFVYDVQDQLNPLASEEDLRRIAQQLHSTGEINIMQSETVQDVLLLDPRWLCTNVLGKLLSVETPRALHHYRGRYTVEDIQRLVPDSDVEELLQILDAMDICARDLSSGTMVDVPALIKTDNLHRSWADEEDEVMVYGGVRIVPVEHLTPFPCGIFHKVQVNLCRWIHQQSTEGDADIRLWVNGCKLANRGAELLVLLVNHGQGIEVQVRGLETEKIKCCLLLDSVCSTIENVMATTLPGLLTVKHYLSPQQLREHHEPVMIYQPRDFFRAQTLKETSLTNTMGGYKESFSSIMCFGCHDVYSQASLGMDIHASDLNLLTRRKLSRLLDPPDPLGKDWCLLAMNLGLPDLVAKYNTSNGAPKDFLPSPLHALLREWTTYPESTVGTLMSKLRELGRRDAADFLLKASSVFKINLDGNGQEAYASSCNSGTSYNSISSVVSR
Chain of HIPK1 (human) (Q86Z02 whole entry, looked up): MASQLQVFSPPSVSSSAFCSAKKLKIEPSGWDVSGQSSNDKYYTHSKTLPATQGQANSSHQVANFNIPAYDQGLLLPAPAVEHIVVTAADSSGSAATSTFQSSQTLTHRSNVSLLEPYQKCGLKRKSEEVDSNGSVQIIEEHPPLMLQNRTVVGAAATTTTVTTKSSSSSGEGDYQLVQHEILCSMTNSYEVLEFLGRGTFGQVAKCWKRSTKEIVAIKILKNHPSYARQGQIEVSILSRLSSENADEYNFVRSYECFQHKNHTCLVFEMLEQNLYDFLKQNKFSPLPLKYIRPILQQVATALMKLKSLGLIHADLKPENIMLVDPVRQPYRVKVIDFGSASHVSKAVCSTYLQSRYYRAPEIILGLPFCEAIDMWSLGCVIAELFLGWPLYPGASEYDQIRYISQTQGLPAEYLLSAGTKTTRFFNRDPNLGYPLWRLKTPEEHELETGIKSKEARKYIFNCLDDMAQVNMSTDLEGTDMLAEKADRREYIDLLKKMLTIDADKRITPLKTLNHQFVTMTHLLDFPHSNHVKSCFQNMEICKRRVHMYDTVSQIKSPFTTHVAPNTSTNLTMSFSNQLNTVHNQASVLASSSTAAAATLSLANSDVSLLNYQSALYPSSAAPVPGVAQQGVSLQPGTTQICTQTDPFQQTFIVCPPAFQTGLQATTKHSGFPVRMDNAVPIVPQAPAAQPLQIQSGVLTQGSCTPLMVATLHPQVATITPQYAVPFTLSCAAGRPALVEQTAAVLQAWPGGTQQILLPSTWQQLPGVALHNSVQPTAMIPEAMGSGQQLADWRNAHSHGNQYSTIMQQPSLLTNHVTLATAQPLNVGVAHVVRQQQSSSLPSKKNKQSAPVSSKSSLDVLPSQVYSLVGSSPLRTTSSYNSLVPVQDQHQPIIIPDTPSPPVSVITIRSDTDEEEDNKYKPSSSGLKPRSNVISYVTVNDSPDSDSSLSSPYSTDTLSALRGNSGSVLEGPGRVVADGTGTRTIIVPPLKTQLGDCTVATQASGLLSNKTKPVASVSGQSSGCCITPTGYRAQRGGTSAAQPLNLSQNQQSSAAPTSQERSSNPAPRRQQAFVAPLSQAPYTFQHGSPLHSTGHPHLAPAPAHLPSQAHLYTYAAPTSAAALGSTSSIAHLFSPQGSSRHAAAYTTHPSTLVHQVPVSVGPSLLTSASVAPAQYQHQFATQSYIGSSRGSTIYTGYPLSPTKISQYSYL
Chain of MAPKAPK5 (human) (Q8IW41 whole entry, looked up): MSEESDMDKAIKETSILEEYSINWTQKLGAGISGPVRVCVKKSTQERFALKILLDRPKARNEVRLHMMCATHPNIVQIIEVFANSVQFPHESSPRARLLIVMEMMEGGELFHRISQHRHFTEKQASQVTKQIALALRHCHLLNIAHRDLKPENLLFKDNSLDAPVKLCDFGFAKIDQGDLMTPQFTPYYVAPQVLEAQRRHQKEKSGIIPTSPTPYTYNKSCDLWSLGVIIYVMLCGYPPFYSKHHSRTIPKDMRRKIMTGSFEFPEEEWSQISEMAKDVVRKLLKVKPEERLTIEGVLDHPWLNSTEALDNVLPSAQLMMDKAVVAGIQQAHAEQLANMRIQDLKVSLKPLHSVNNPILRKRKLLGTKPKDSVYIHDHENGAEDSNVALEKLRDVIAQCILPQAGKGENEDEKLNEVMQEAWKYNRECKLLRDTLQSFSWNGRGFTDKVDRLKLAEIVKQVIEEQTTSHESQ

CCNc1nc(Nc2cc(F)c(C(=O)N3CCOCC3)cc2OC)ncc1C(F)(F)F
residual activity ([1]; compound 1.0 µM): 78% | residual activity ([1]; compound 10.0 µM): 23% | residual activity ([2]; compound 1.0 µM): 98% | residual activity ([2]; compound 10.0 µM): 91% | residual activity ([3]; compound 1.0 µM): 80% | residual activity ([3]; compound 10.0 µM): 55% | residual activity ([4]; compound 1.0 µM): 131% | residual activity ([4]; compound 10.0 µM): 90% | residual activity ([5]; compound 1.0 µM): 95% | residual activity ([5]; compound 10.0 µM): 56% | residual activity ([6]; compound 1.0 µM): 78% | residual activity ([6]; compound 10.0 µM): 35% | residual activity ([7]; compound 1.0 µM): 43% | residual activity ([7]; compound 10.0 µM): 9% | residual activity ([8]; compound 1.0 µM): 95% | residual activity ([8]; compound 10.0 µM): 82% | residual activity ([9]; compound 1.0 µM): 107% | residual activity ([9]; compound 10.0 µM): 93% | residual activity ([10]; compound 1.0 µM): 99% | residual activity ([10]; compound 10.0 µM): 83% | residual activity ([11]; compound 1.0 µM): 85% | residual activity ([11]; compound 10.0 µM): 72% | residual activity ([12]; compound 1.0 µM): 89% | residual activity ([12]; compound 10.0 µM): 101% | residual activity ([13]; compound 1.0 µM): 97% | residual activity ([13]; compound 10.0 µM): 58% | residual activity ([14]; compound 10.0 µM): 83% | residual activity ([15]; compound 1.0 µM): 13% | residual activity ([15]; compound 10.0 µM): 2% | residual activity ([16]; compound 1.0 µM): 103% | residual activity ([16]; compound 10.0 µM): 84% | residual activity ([17]; compound 1.0 µM): 85% | residual activity ([17]; compound 10.0 µM): 48% | residual activity ([18]; compound 1.0 µM): 107% | residual activity ([18]; compound 10.0 µM): 86% | residual activity ([19]; compound 1.0 µM): 96% | residual activity ([19]; compound 10.0 µM): 58% | residual activity ([20]; compound 1.0 µM): 80% | residual activity ([20]; compound 10.0 µM): 41% | residual activity ([21]; compound 1.0 µM): 72% | residual activity ([21]; compound 10.0 µM): 31% | residual activity ([22]; compound 1.0 µM): 91% | residual activity ([22]; compound 10.0 µM): 49% | residual activity ([23]; compound 1.0 µM): 86% | residual activity ([23]; compound 10.0 µM): 74% | residual activity ([24]; compound 1.0 µM): 97% | residual activity ([24]; compound 10.0 µM): 70% | residual activity ([25]; compound 1.0 µM): 92% | residual activity ([25]; compound 10.0 µM): 32% | residual activity ([26]; compound 1.0 µM): 102% | residual activity ([26]; compound 10.0 µM): 98% | residual activity ([27]; compound 1.0 µM): 102% | residual activity ([27]; compound 10.0 µM): 87% | residual activity ([28]; compound 1.0 µM): 111% | residual activity ([28]; compound 10.0 µM): 102% | residual activity ([29]; compound 1.0 µM): 88% | residual activity ([29]; compound 10.0 µM): 65% | residual activity ([30]; compound 1.0 µM): 25% | residual activity ([30]; compound 10.0 µM): 3% | residual activity ([31]; compound 1.0 µM): 100% | residual activity ([31]; compound 10.0 µM): 90% | residual activity ([32]; compound 1.0 µM): 50% | residual activity ([32]; compound 10.0 µM): 17% | residual activity ([33]; compound 1.0 µM): 116% | residual activity ([33]; compound 10.0 µM): 107% | residual activity ([34]; compound 1.0 µM): 107% | residual activity ([34]; compound 10.0 µM): 98% | residual activity ([35]; compound 1.0 µM): 74% | residual activity ([35]; compound 10.0 µM): 27% | residual activity ([36]; compound 1.0 µM): 108% | residual activity ([36]; compound 10.0 µM): 101%

O=C(NCCCNc1nc(Nc2cccc(CN3CCOCC3)c2)ncc1C1CC1)C1CCC1
residual activity ([1]; compound 0.1 µM): 34% | residual activity ([1]; compound 1.0 µM): 23% | residual activity ([2]; compound 0.1 µM): 103% | residual activity ([2]; compound 1.0 µM): 114% | residual activity ([3]; compound 0.1 µM): 104% | residual activity ([3]; compound 1.0 µM): 122% | residual activity ([4]; compound 0.1 µM): 89% | residual activity ([4]; compound 1.0 µM): 77% | residual activity ([5]; compound 0.1 µM): 95% | residual activity ([5]; compound 1.0 µM): 88% | residual activity ([6]; compound 0.1 µM): 96% | residual activity ([6]; compound 1.0 µM): 94% | residual activity ([7]; compound 0.1 µM): 84% | residual activity ([7]; compound 1.0 µM): 72% | residual activity ([8]; compound 0.1 µM): 86% | residual activity ([8]; compound 1.0 µM): 86% | residual activity ([9]; compound 0.1 µM): 87% | residual activity ([9]; compound 1.0 µM): 84% | residual activity ([10]; compound 0.1 µM): 90% | residual activity ([10]; compound 1.0 µM): 95% | residual activity ([11]; compound 0.1 µM): 91% | residual activity ([11]; compound 1.0 µM): 81% | residual activity ([12]; compound 0.1 µM): 100% | residual activity ([12]; compound 1.0 µM): 107% | residual activity ([13]; compound 0.1 µM): 16% | residual activity ([13]; compound 1.0 µM): 9% | residual activity ([14]; compound 0.1 µM): 110% | residual activity ([14]; compound 1.0 µM): 101% | residual activity ([15]; compound 0.1 µM): 47% | residual activity ([15]; compound 1.0 µM): 11% | residual activity ([16]; compound 0.1 µM): 94% | residual activity ([16]; compound 1.0 µM): 90% | residual activity ([17]; compound 0.1 µM): 99% | residual activity ([17]; compound 1.0 µM): 106% | residual activity ([18]; compound 0.1 µM): 95% | residual activity ([18]; compound 1.0 µM): 98% | residual activity ([19]; compound 0.1 µM): 91% | residual activity ([19]; compound 1.0 µM): 101% | residual activity ([20]; compound 0.1 µM): 15% | residual activity ([20]; compound 1.0 µM): 1% | residual activity ([21]; compound 0.1 µM): 105% | residual activity ([21]; compound 1.0 µM): 113% | residual activity ([22]; compound 0.1 µM): 98% | residual activity ([22]; compound 1.0 µM): 68% | residual activity ([23]; compound 0.1 µM): 87% | residual activity ([23]; compound 1.0 µM): 94% | residual activity ([24]; compound 0.1 µM): 90% | residual activity ([24]; compound 1.0 µM): 95% | residual activity ([25]; compound 0.1 µM): 100% | residual activity ([25]; compound 1.0 µM): 79% | residual activity ([26]; compound 0.1 µM): 88% | residual activity ([26]; compound 1.0 µM): 90% | residual activity ([27]; compound 0.1 µM): 90% | residual activity ([27]; compound 1.0 µM): 93% | residual activity ([28]; compound 0.1 µM): 78% | residual activity ([28]; compound 1.0 µM): 71% | residual activity ([29]; compound 0.1 µM): 95% | residual activity ([29]; compound 1.0 µM): 95% | residual activity ([30]; compound 0.1 µM): 40% | residual activity ([30]; compound 1.0 µM): 16% | residual activity ([31]; compound 0.1 µM): 107% | residual activity ([31]; compound 1.0 µM): 108% | residual activity ([32]; compound 0.1 µM): 92% | residual activity ([32]; compound 1.0 µM): 101% | residual activity ([33]; compound 0.1 µM): 98% | residual activity ([33]; compound 1.0 µM): 110% | residual activity ([34]; compound 0.1 µM): 91% | residual activity ([34]; compound 1.0 µM): 108% | residual activity ([35]; compound 0.1 µM): 104% | residual activity ([35]; compound 1.0 µM): 101% | residual activity ([36]; compound 0.1 µM): 80% | residual activity ([36]; compound 1.0 µM): 67%
